The values below come from patent US20220348592A1, “FUSED HETEROCYCLIC DERIVATIVES” (Janssen Sciences Ireland Unlimited Company, priority 2019, published 2022).

Read-outs that look alike come from different tables or passages of the source.

One data set relates to HBV. The data set is described as follows: Anti-HBV activity: intracellular HBV DNA by real-time PCR in HepG2.117 cell line. The class given is cell-based, Hepatitis B virus. As to conditions: Hepatitis B virus, read-out: HBV-AVE-HepG2.117 EC50 (μM, mean value). As to the method:
The anti HBV activity was measured using the HepG2.117 cell line, a stable, inducibly HBV producing cell line, which replicates HBV in the absence of doxicycline (Tet-off system). The HepG2 cell line is available from ATCC® under number HB-8065. Transfection of the HepG2 cell line can be as described in Sun and Nassal 2006 Journal of Hepatology 45 (2006) 636-645 “Stable HepG2- and Huh7-based human hepatoma cell lines for efficient regulated expression of infectious hepatitis B virus”.
For the antiviral assay, HBV replication was induced, followed by a treatment with serially diluted compound in 96-well plates. After 3 days of treatment, the antiviral activity was determined by quantification of intracellular HBV DNA using real-time PCR and an HBV specific primer set and probe.

Data set [1] can be described thus: Cytotoxicity in HepG2.117 cells, ATPlite Luminescence Assay. It counts as cell-based, human. Particulars: human, incubated for 3 days, mean value, read-out: TOX-HepG2.117 CC50 (μM, mean value). As to the method: Cytotoxicity of the compounds was tested using HepG2 or HepG2.117 cells, incubated for 3 days in the presence of compounds. The viability of the cells was assessed using the PERKIN ELMER ATPlite Luminescence Assay System.”
A general note: In ATP-based viability assays light output follows the ATP content of the culture.

[2] abbreviates: 72 h, HepG2.117 cells, 3 days of treatment, intracellular HBV DNA by real-time PCR, mean value.

The EC50 is the midpoint of the concentration-response curve. In general, CC50 refers to the concentration that lowers cell viability or growth by half.

For `COc1ccc(CN2CCn3nc4c(c3C2=O)CN(C(=O)c2ccc(Cl)c(Cl)c2)[C@H](C)C4)cc1` [Compound 11, (3R)-2-(3,4-Dichlorobenzoyl)-9-[(4-methoxyphenyl)methyl]-3-methyl-1,2,3,4,8,9-hexahydro-pyrido[4′,3′:3,4]pyrazolo[1,5-a]pyrazin-10(7H)-one], the EC50 in the data set with HBV (setting [2]) worked out at 0.054 µM. In addition, the CC50 at 3 days in data set [1] came out at 8.43 µM.

For `C[C@@H]1Cc2nn3c(c2CN1C(=O)c1ccc(Cl)c(Cl)c1)C(=O)N(Cc1ccc(F)cc1)CC3` [Compound 12, (3R)-2-(3,4-Dichlorobenzoyl)-9-[(4-fluorophenyl)methyl]-3-methyl-1,2,3,4,8,9-hexahydro-pyrido[4′,3′:3,4]pyrazolo[1,5-a]pyrazin-10(7H)-one], in the data set on HBV (setting [2]), the EC50 is 0.066 µM. Besides, in data set [1], the CC50 at 3 days turned out to be 25.3 µM.

As to `C[C@@H]1Cc2nn3c(c2CN1C(=O)c1ccc(Cl)c(Cl)c1)C(=O)N(Cc1ccc(OC(F)(F)F)cc1)CC3` [Compound 14, (3R)-2-(3,4-Dichlorobenzoyl)-3-methyl-9-{[4-(trifluoromethoxy)phenyl]methyl}-1,2,3,4,8,9-hexahydropyrido[4′,3′:3,4]pyrazolo[1,5-a]pyrazin-10(7H)-one], the EC50 in the data set with HBV (setting [2]) worked out at 0.085 µM. Further, the CC50 at 3 days in data set [1] stood at 6.96 µM.

For `C[C@@H]1Cc2nn3c(c2CN1C(=O)c1ccc(Cl)c(Cl)c1)C(=O)N(Cc1ccccn1)CC3` [Compound 15, (3R)-2-(3,4-Dichlorobenzoyl)-3-methyl-9-[(pyridin-2-yl)methyl]-1,2,3,4,8,9-hexahydropyrido-[4′,3′:3,4]pyrazolo[1,5-a]pyrazin-10(71)-one], the EC50 with HBV (setting [2]) was 0.055 µM. Further, the CC50 at 3 days in data set [1] is above 50 µM.

For `C[C@@H]1Cc2nn3c(c2CN1C(=O)c1ccc(Cl)c(Cl)c1)C(=O)N(Cc1cccnc1)CC3` [Compound 16, (3R)-2-(3,4-Dichlorobenzoyl)-3-methyl-9-[(pyridin-3-yl)methyl]-1,2,3,4,8,9-hexahydropyrido-[4′,3′:3,4]pyrazolo[1,5-a]pyrazin-10(7H)-one], the EC50 in the data set with HBV (setting [2]) was found to be 0.079 µM. Besides, the CC50 at 3 days in data set [1] was above 50 µM.

Take `C[C@@H]1Cc2nn3c(c2CN1C(=O)c1ccc(Cl)c(Cl)c1)C(=O)N(Cc1ccncc1)CC3` [Compound 17, (3R)-2-(3,4-Dichlorobenzoyl)-3-methyl-9-[(pyridin-4-yl)methyl]-1,2,3,4,8,9-hexahydropyrido-[4′,3′:3,4]pyrazolo[1,5-a]pyrazin-10(7H)-one]: in the data set with HBV (HepG2.117, 72 h), the EC50 turned out to be 0.436 µM. The CC50 at 3 days in data set [1] is above 50 µM.

As to `C[C@@H]1Cc2nn3c(c2CN1C(=O)c1ccc(Cl)c(Cl)c1)C(=O)N(Cc1ccnn1C)CC3` [Compound 18, (3R)-2-(3,4-Dichlorobenzoyl)-3-methyl-9-[(1-methyl-1H-pyrazol-5-yl)methyl]-1,2,3,4,8,9-hexahydropyrido[4′,3′:3,4]pyrazolo[1,5-a]pyrazin-10(7H)-one], in the data set with HBV (setting [2]), the EC50 was found to be 0.252 µM. The CC50 at 3 days in data set [1] was above 50 µM.

For the molecule `C[C@@H]1Cc2nn3c(c2CN1C(=O)c1ccc(Cl)c(Cl)c1)C(=O)N(Cc1ccn(C)n1)CC3` [Compound 19, (3R)-2-(3,4-Dichlorobenzoyl)-3-methyl-9-[(1-methyl-1H-pyrazol-3-yl)methyl]-1,2,3,4,8,9-hexahydropyrido[4′,3′:3,4]pyrazolo[1,5-a]pyrazin-10(7H)-one], in the data set with HBV (setting [2]), the EC50 came out at 0.079 µM. Also, the CC50 at 3 days in data set [1] was above 50 µM.

As for `C[C@@H]1Cc2nn3c(c2CN1C(=O)c1ccc(Cl)c(Cl)c1)C(=O)N(Cc1cc[nH]n1)CC3` [Compound 20, (3R)-2-(3,4-Dichlorobenzoyl)-3-methyl-9-[(1H-pyrazol-3-yl)methyl]-1,2,3,4,8,9-hexahydro-pyrido[4′,3′:3,4]pyrazolo[1,5-a]pyrazin-10(7H)-one], the EC50 in the data set on HBV (setting [2]) amounted to 0.108 µM. Also, the CC50 at 3 days in data set [1] is above 50 µM.

`C[C@@H]1Cc2nn3c(c2CN1C(=O)c1ccc(Cl)c(Cl)c1)C(=O)N(Cc1ccon1)CC3` [Compound 21, (3R)-2-(3,4-Dichlorobenzoyl)-3-methyl-9-[(1,2-oxazol-3-yl)methyl]-1,2,3,4,8,9-hexahydro-pyrido[4′,3′:3,4]pyrazolo[1,5-a]pyrazin-10(7H)-one]: the EC50 with HBV (setting [2]) was determined as 0.268 µM. The CC50 at 3 days in data set [1] is above 50 µM.

Take `C[C@@H]1Cc2nn3c(c2CN1C(=O)c1ccc(Cl)c(Cl)c1)C(=O)N(Cc1cscn1)CC3` [Compound 22, (3R)-2-(3,4-Dichlorobenzoyl)-3-methyl-9-[(1,3-thiazol-4-yl)methyl]-1,2,3,4,8,9-hexahydro-pyrido[4′,3′:3,4]pyrazolo[1,5-a]pyrazin-10(7H)-one]: in the data set with HBV (setting [2]), the EC50 stood at 0.129 µM. Moreover, in data set [1], the CC50 at 3 days was above 50 µM.

`COc1ccc([C@@H](C)N2CCn3nc4c(c3C2=O)CN(C(=O)c2ccc(Cl)c(Cl)c2)[C@H](C)C4)cc1` [Compound 23, (3R)-2-(3,4-Dichlorobenzoyl)-9-[(1R)-1-(4-methoxyphenyl)ethyl]-3-methyl-1,2,3,4,8,9-hexahydropyrido[4′,3′:3,4]pyrazolo[1,5-a]pyrazin-10(7H)-one]: the concentration giving a half-maximal response (EC50) with HBV (setting [2]) was determined as 0.022 µM. Moreover, the CC50 at 3 days in data set [1] is above 50 µM.

For the molecule `COc1ccc([C@H](C)N2CCn3nc4c(c3C2=O)CN(C(=O)c2ccc(Cl)c(Cl)c2)[C@H](C)C4)cc1` [Compound 24, (3R)-2-(3,4-dichlorobenzoyl)-9-[(1S)-1-(4-methoxyphenyl)ethyl]-3-methyl-1,2,3,4,8,9-hexahydropyrido[4′,3′:3,4]pyrazolo[1,5-a]pyrazin-10(7H)-one], in the data set on HBV (setting [2]), the EC50 is 0.036 µM. The CC50 at 3 days in data set [1] was 10.4 µM.

Take `C[C@@H]1Cc2nn3c(c2CN1C(=O)c1ccc(Cl)c(Cl)c1)C(=O)N([C@H](C)c1ccc(F)cc1)CC3` [Compound 25, (3R)-2-(3,4-Dichlorobenzoyl)-9-[(1R)-1-(4-fluorophenyl)ethyl]-3-methyl-1,2,3,4,8,9-hexahydropyrido[4′,3′:3,4]pyrazolo[1,5-a]pyrazin-10(7H)-one]: in the data set on HBV (setting [2]), the EC50 amounted to 0.016 µM. Besides, the CC50 at 3 days in data set [1] is above 25 µM.

For `C[C@@H]1Cc2nn3c(c2CN1C(=O)c1ccc(Cl)c(Cl)c1)C(=O)N([C@@H](C)c1ccc(F)cc1)CC3` [Compound 26, (3R)-2-(3,4-Dichlorobenzoyl)-9-[(1S)-1-(4-fluorophenyl)ethyl]-3-methyl-1,2,3,4,8,9-hexahydro-pyrido[4′,3′:3,4]pyrazolo[1,5-a]pyrazin-10(7H)-one], the EC50 in the data set with HBV (setting [2]) is 0.028 µM. Moreover, the CC50 at 3 days in data set [1] was 26.2 µM.

As to `C[C@@H]1Cc2nn3c(c2CN1C(=O)c1ccc(Cl)c(Cl)c1)C(=O)N([C@H](C)c1ccc(OC(F)F)cc1)CC3` [Compound 27, (3R)-2-(3,4-Dichlorobenzoyl)-9-{(1R)-1-[4-(difluoromethoxy)phenyl]ethyl}-3-methyl-1,2,3,4,8,9-hexahydropyrido[4′,3′:3,4]pyrazolo[1,5-a]pyrazin-10(7H)-one], the concentration for a half-maximal effect (EC50) with HBV (setting [2]) was determined as 0.103 µM. Besides, the CC50 at 3 days in data set [1] is above 50 µM.

On to `C[C@@H]1Cc2nn3c(c2CN1C(=O)c1ccc(Cl)c(Cl)c1)C(=O)N([C@@H](C)c1ccc(OC(F)F)cc1)CC3` [Compound 28, (3R)-2-(3,4-Dichlorobenzoyl)-9-{(1S)-1-[4-(difluoromethoxy)phenyl]ethyl}-3-methyl-1,2,3,4,8,9-hexahydropyrido[4′,3′:3,4]pyrazolo[1,5-a]pyrazin-10(7H)-one], for which, in the data set on HBV (setting [2]), the EC50 was determined as 0.057 µM. Besides, in data set [1], the CC50 at 3 days came out at 16.7 µM.

On to `C[C@@H]1Cc2nn3c(c2CN1C(=O)c1ccc(Cl)c(Cl)c1)C(=O)N([C@@H](C)c1ncn(S(=O)(=O)N(C)C)n1)CC3` [Compound 29, 3-{(1S)-1-[(3R)-2-(3,4-Dichlorobenzoyl)-3-methyl-10-oxo-1,3,4,7,8,10-hexahydropyrido-[4′,3′:3,4]pyrazolo[1,5-a]pyrazin-9(2H)-yl]ethyl}-N,N-dimethyl-1H-1,2,4-triazole-1-sulfonamide], for which the EC50 in the data set on HBV (setting [2]) came to 0.741 µM. The CC50 at 3 days in data set [1] is above 50 µM.

Consider `C[C@@H]1Cc2nn3c(c2CN1C(=O)c1ccc(Cl)c(Cl)c1)C(=O)N([C@@H](C)c1nc[nH]n1)CC3` [Compound 30, (3R)-2-(3,4-Dichlorobenzoyl)-3-methyl-9-[(1S)-1-(1H-1,2,4-triazol-3-yl)ethyl]-1,2,3,4,8,9-hexa-hydropyrido[4′,3′:3,4]pyrazolo[1,5-a]pyrazin-10(7H)-one], for which the EC50 with HBV (HepG2.117, 72 h) was found to be 1.5 µM. In addition, in data set [1], the CC50 at 3 days was above 50 µM.

Consider `CN1CCCn2nc3c(c2C1=O)CN(C(=O)c1ccc(Cl)c(Cl)c1)CC3` [Compound 34, 2-(3,4-Dichlorobenzoyl)-10-methyl-1,2,3,4,7,8,9,10-octahydro-11H-pyrido[4′,3′:3,4]pyrazolo-[1,5-a][1,4]diazepin-11-one], for which the EC50 with HBV (setting [2]) stood at 1.38 µM. Besides, in data set [1], the CC50 at 3 days was above 50 µM.

With `COc1ccc(CN2CCCn3nc4c(c3C2=O)CN(C(=O)c2ccc(Cl)c(Cl)c2)CC4)cc1` [Compound 36, 2-(3,4-Dichlorobenzoyl)-10-[(4-methoxyphenyl)methyl]-1,2,3,4,7,8,9,10-octahydro-11H-pyrido[4′,3′:3,4]pyrazolo[1,5-a][1,4]diazepin-11-one], the EC50 in the data set with HBV (setting [2]) was 0.077 µM. For the same molecule, the CC50 at 3 days in data set [1] amounted to 24.6 µM.

On to `O=C(c1ccc(Cl)c(Cl)c1)N1CCc2nn3c(c2C1)C(=O)N(Cc1ccncc1)CCC3` [Compound 37, 2-(3,4-Dichlorobenzoyl)-10-[(pyridin-4-yl)methyl]-1,2,3,4,7,8,9,10-octahydro-11H-pyrido-[4′,3′:3,4]pyrazolo[1,5-a][1,4]diazepin-11-one], for which, in the data set on HBV (setting [2]), the EC50 is 0.345 µM. For the same molecule, the CC50 at 3 days in data set [1] was above 50 µM.
